Measurements reported in patent US20250090441A1, “ANTI-CARIES PEPTIDES WITH ANTIMICROBIAL AND REMINERALIZING PROPERTIES AND METHODS THEREOF” (THE UNIVERSITY OF HONG KONG, priority 2023, published 2025).
Where a SMILES comes first, the peptide text is derived from it.

Legend:
[1] = Effect on hard tissue, biofilm remineralization cycling model (micro-CT, FTIR); conditions: carious dentine, 160 μM GAPI
Excerpt: Dentine slices, 2 mm thick, were cut from sound extracted third molars. Ultra-fine 4000-grit sandpaper was used to polish these slices. Slices with defects were eliminated based on a stereomicroscope observation. A total of forty dentine slices were selected. Each slice was separated into two blocks and assigned to two groups. Nail varnish was used to coat half of the blocks as an internal control. S. mutans American Type Culture Collection 35668 was utilized in the present study. All the dentine blocks were placed into S. mutans culture (10^8 cells/mL) in a brain-heart infusion (BHI) broth containing 5% glucose to generate artificial caries. After a 3-day anaerobic culture at 37° C., the depth of the caries lesion surface was around 96 μm, which was observed using micro-computed tomography (micro-CT).
Two blocks from the same slice were assigned to the GAPI group (160 μM GAPI) and control group (deionized water) separately. All the blocks underwent a biochemical model involving chemical remineralization and an S. mutans biofilm challenge for seven days. The remineralization solution (pH 7.0) consisted of 1.5 mm calcium chloride, 150 mm potassium chloride, 0.9 mm potassium dihydrogen phosphate, and 20 mm 4-(2-hydroxyethyl)-1-piperazineethanesulfonic acid. The cycling process included 8 h of immersion in the remineralization solution and 16 h of immersion in an S. mutans biofilm medium.
Micro-CT (SkyScan 1272, Antwerp, Belgium) was employed to evaluate the lesion depths and mineral losses (n=8 for each group). The X-ray source parameters were set at an 80 kV voltage and 100 μA current with an image pixel size of 10 μm. Moreover, two standard mineral cylindrical phantoms (Bruker, Kontich, Belgium) with mineral density values (MDVs, gHApcm^−3) of 0.25 gHApcm^−3 and 0.75 gHApcm^−3 were scanned to calibrate the blocks' greyscales. The NRecon reconstruction software (Version 1.7.4.6, SkyScan, Antwerp, Belgium) was utilized to reconstruct the scanning images. The CTAn data analysis software (CTAn version 1.20.3.0, Skyscan NV, Kontich, Belgium) was employed to analyze the cross-sectional images. The lesion depths were measured, and the images' greyscale values were calibrated. Subsequently, the demineralized and control areas were calculated into the MDV for each block. The mineral loss was determined as the difference between the MDV of the control and the MDV of the demineralized area (Niu et al., 2022).
FTIR (Spectrum Two, PerkinElmer, Waltham, MA, USA) was employed to examine the changes in the dentin's chemical structures (n=8 for each group). […] The ratio of the HPO4^2− to amide I absorbance area represented the degree of demineralization in the dentin.

[2] = test system: Lacticaseibacillus casei in multiple-species cariogenic biofilm; assay: Multiple-species cariogenic biofilm, PMA-qPCR; format: cell-based; conditions: three-species biofilm treated with GAPI, n=6 per group
Procedure: (§1) A multiple-species cariogenic biofilm consisting of Streptococcus mutans, Lacticaseibacillus casei and Candida albicans was cultured to assess the anti-biofilm properties of GAPI. The culture medium was modified-artificial saliva as described in a previous protocol (Yassin et al. 2016). The biofilm was cultured on glass slides in 24-well plates with 1×10^7 Streptococcus mutans, 1×10^7 Lacticaseibacillus casei and 1×10^5 Candida albicans for 48 h. The biofilm was then treated with GAPI. The biofilm with no treatment was the negative control. After another 48-h incubation, the biofilm was collected for sequent assessments. The architecture of the multiple-species biofilm was assessed using scanning electron microscopy (SEM) and confocal laser scanning microscopy (CLSM). The sample was prepared with our published protocol (Niu et al. 2021d). The growth kinetics of the multiple-species biofilm were analyzed using propidium monoazide-quantitative polymerase chain reaction (PMA-qPCR) (Loozen et al. 2011). Biofilm was suspended in phosphate-buffered solution. The suspension was treated with propidium monoazide (PMA) (Biotium, San Francisco, USA) and exposed to halogen light photoactivation (PMA-Lite™, Biotium, San Francisco, USA). The brightness (luminosity) of the light device is 600-800 millicandela and its wavelength is 465-475 nm. Then deoxyribonucleic acid (DNA) was extracted from PMA-treated biofilm suspension using QIAamp DNA Mini Kit (QIAGEN, Dusseldorf, Germany). The oligonucleotide primers and TaqMan probes were used to quantify multiple-species cariogenic biofilm species: SMUT-forward(F), SMUT-reverse(R) and SMUT-probe(P) for Streptococcus mutans, Lc-F, Lc-R, Lc-P for Lactobacillus casei and Ca—F, Ca—R and Ca-P for Candida albicans […]. […]
(§2) Biofilm was suspended in phosphate-buffered solution. […] The oligonucleotide primers and TaqMan probes were used to quantify multiple-species cariogenic biofilm species: SMUT-forward(F), SMUT-reverse(R) and SMUT-probe(P) for Streptococcus mutans, Lc-F, Lc-R, Lc-P for Lactobacillus casei and Ca—F, Ca—R and Ca-P for Candida albicans (Table 3). […]

[3] = test system: Streptococcus mutans in multiple-species cariogenic biofilm; assay: Multiple-species cariogenic biofilm, PMA-qPCR; format: cell-based; conditions: three-species biofilm treated with GAPI, n=6 per group
Procedure: as §1, §2

[4] = test system: Candida albicans in multiple-species cariogenic biofilm; assay: Multiple-species cariogenic biofilm, PMA-qPCR; format: cell-based; conditions: three-species biofilm treated with GAPI, n=6 per group
Procedure: as §1, §2

[5] = 7 days cycling, micro-CT, n = 8

Structure (SMILES): CC(C)[C@@H]1NC(=O)[C@H](CCCN=C(N)N)NC(=O)[C@H](Cc2ccccc2)NC(=O)[C@@H](NC(=O)[C@H](Cc2c[nH]c3ccccc23)NC(=O)[C@H](CCCN=C(N)N)NC(=O)[C@H](CCCN=C(N)N)NC(=O)c2cc(O)c(O)c(O)c2)CSSC[C@@H](C(=O)N[C@@H](CCCN=C(N)N)C(=O)O)NC(=O)[C@H](CCCCN)NC(=O)[C@H](CCCN=C(N)N)NC(=O)[C@H](Cc2ccc(O)cc2)NC(=O)[C@@H]2CSSC[C@H](NC1=O)C(=O)N[C@@H](Cc1ccc(O)cc1)C(=O)N[C@@H](CCCN=C(N)N)C(=O)NCC(=O)N[C@@H](Cc1ccccc1)C(=O)N2 [GAPI, Gallic-Acid-Polyphemusin-I] (HELM PEPTIDE1{[O=C(c1cc(O)c(O)c(O)c1)[*:2]].R.R.W.C.F.R.V.C.Y.R.G.F.C.Y.R.K.C.R}$PEPTIDE1,PEPTIDE1,5:R3-18:R3|PEPTIDE1,PEPTIDE1,9:R3-14:R3$$$V2.0)
- lesion depths [1]: 151±18 μm
- Hydrogen phosphate-to-amide I ratio ([1]; 7 days cycling, FTIR, n = 8): 2.92±0.82
- Lesion depth [1, 5]: 151 ± 18 μm
- Mineral loss [1, 5]: 0.91±0.07 gHAcm^−3
- log 10 cell counts of Lacticaseibacillus casei [2]: 7.33±0.38
- log 10 cell counts of Streptococcus mutans [3]: 6.05±0.37
- log 10 cell counts of Candida albicans [4]: 6.63±0.55
